Patent US20100048731A1, “Hydroxylated Long-Chain Resveratrol Derivatives Useful as Neurotrophic Agents” (Centre National de la Recherche Scientifique(CNRS), priority 2006, published 2010)
Like-named read-outs stand apart in the source and are kept apart here.

Key:
[1] = DPPH test (antioxidant capacity); format: physicochemical; conditions: after 3 hours of incubation (time stated for the hybrid molecules); read-out: IC50 (concentration at which 50% of the radicals are reduced), DPPH test
Description: The DPPH [(2,2′-di(4-tert-octylphenyl)1-picrylhydrazyl] test was used to determine the antioxidant capacity of our compounds [9]. DPPH is a stabilized radical that absorbs at 517 nm (violet color). When it is placed in the presence of an antioxidant molecule, the latter will react with the radical. Thus, a decrease in absorbance can be observed. Antioxidant capacity thus results in a decrease in absorbance at 517 nm.
a) Implementation of the DPPH Test
On a 96-well ELISA plate, add: • 100 μl of the various solutions at the following concentrations: 10 mM, 5 mM, 2.5 mM, 1 mM, 0.5 mM, 0.1 mM, 0.01 mM and 0.001 mM; • 100 μl of a 400 μM solution of DPPH in ethanol.
After incubating for 45 minutes, 2 hours and 3 hours, the result is given by measuring optical density at […] using a spectrophotometer.
The result is expressed as IC50, which is the concentration at which 50% of the radicals are reduced by the antioxidant molecule.
The inventors tested resveratrol, as a positive control, as well as RFA-10, RFA-12 and RFA-16.

[2] = ABTS test (antioxidant capacity, hydroxyl radicals from the Fenton reaction); format: physicochemical; conditions: after 2 hours of incubation
Source text: In light of the results obtained with the DPPH test, the use of the ABTS ([2,2′-azino-bis-(3-ethylbenzthiazoline-6-sulfonic acid)]) test was considered, [11], [12]. The ABTS test is more sensitive insofar as it uses less encumbered hydroxyl radicals.
The ABTS molecule reacts with the hydroxyl (OH) radicals generated in the medium by the Fenton reaction to form a cation radical, ABTS^+ (green color), which is absorbent at 405 nm. Thus, when it is placed in the presence of an antioxidant molecule, one capable of reducing hydroxyl radicals, a reduction in absorbance at 405 nm can be observed.
On a 96-well ELISA plate, add: • 180 μl of a 50/50 water/ethanol mixture; • 30 μl of a 1 mM aqueous ABTS solution; • 30 μl of a 1 mM aqueous FeSO4 solution; • 30 μl of the product to be tested at the following concentrations: 10 mM, 5 mM, 2.5 mM, 1 mM, 0.5 mM, 0.1 mM, 0.01 mM and 0.001 mM; • 30 μl of a 100 mM aqueous H2O2 solution.
After incubating for 45 minutes, 1 hour and 2 hours, the result is given by measuring optical density at 405 nm using a spectrophotometer.
In order to maximally reduce solubility problems, RFA-10 was tested. Resveratrol was again used as a positive control.

[3] = test system: microglial cell cultures treated with LPS; test: Nitrite release (Griess method) in LPS-activated microglial cell cultures; format: cell-based; conditions: LPS 0.01 μg/ml; for decrease in nitrite production compared to the control values: three independent experiments, concentration not stated (5×10^-6, 10^-6 and 10^-7 M tested)
Source text: (§1) The experiments carried out thus relate to the capacity of RFA molecules (MRFA and DMRFA) to inhibit, in activated microglia, the release of nitrites and TNF-α.
The activity of NO-synthase type II (NOS II) represents a microglial activity parameter often analyzed in the literature. This enzyme is responsible for the synthesis of nitric oxide radicals under conditions of inflammatory activation. Microglia at rest only express levels at the immunoblotting detection limit. Activation of 24 to 48 hours leads to a strong increase in this expression. The product of this enzyme, NO, quickly breaks down in culture to form nitrites.
(§2) In the experiments performed, NO2^− concentrations were measured after 24 hours and 48 hours of activation in microglial cell cultures treated with 0.01 μg/ml of LPS, in the presence of products RFA-12, MRFA-10, MRFA-12, MRFA-14, MRFA-16, MRFA-18, DMRFA-10, DMRFA-12, DMRFA-14, DMRFA-16, DMRFA-18, M-resveratrol, DM-resveratrol and resveratrol at concentrations of 5×10^−6 M, 10^−6 M and 10^−7 M.

[4] = test system: microglial cell cultures treated with LPS; test: TNF-α release (ELISA) in LPS-activated microglial cell cultures; format: cell-based; conditions: read-out: decrease in TNF-α production compared to control values
Description: as §1
The expression of TNF-α represents a microglial activation parameter often analyzed in the literature. […] A 24-hour activation by LPS leads to a strong increase in expression, detectable by ELISA.
as §2, with “TNF-α” for “NO2^−”, “24” for “24 hours and 48”, “LPS” for “LPS,”, “of” for “of products RFA-12,”

neural stem cells [5] = test: Differentiation of neural stem cells (neurospheres) into neurons, by immunocytochemistry; format: cell-based, mouse; conditions: for increase in the neuron population compared to the control fixed at 100%: 3 days of differentiation
Description: (§3) Neurospheres are obtained from mouse embryo telencephalon cells cultivated in a defined medium containing 20 ng/ml EGF. After dissociation, the spheres proliferate for 3 days in the presence of EGF (20 ng/ml) during the so-called proliferation phase.
The spheres are then collected and deposited on an poly-ornithine support in a defined medium in the presence of 2 ng/ml EGF. Under these conditions, the spheres adhere to the support and differentiate. The compounds to be tested, RFA-12 and its analogues, dissolved beforehand in ethanol, are added immediately after the deposit of the neurospheres at various concentrations ranging from 10^−5 M to 10^−9 M. The control cultures are treated with a negative control (ethanol) and a positive control (retinoic acid).
To screen our compounds we performed a double labeling, namely for neurons and for astrocytes.
For the detection of astrocytes, a secondary antibody coupled to a fluorochrome derived from rhodamine, Alexa488 (green), was used.
In order to be able to quantify the results, the nuclei are marked by an intercalating agent, TO-PRO (blue). The cultures are then observed under a confocal microscope.

neural stem cells [6] = test: Neural stem cell proliferation; format: cell-based, mouse; conditions: 10^-6 M; cultured for 5 days
Description: as §3
1. RFA-12 induces the differentiation of neural stem cells into neurons. […] However, if the neurospheres are treated with RFA-12 at a concentration of 10^−6 M to 10^−8 M, an increase in the number of neurons compared to the control (untreated cells) is observed. At concentrations of 10^−6 M, 10^−7 M and 10^−8 M we can observe a 120%, 90% and 80% increase, respectively, in the neuron population compared to the control fixed at 100%. […] In order to see whether RFA and its analogues also act on neural stem cell proliferation, these cells are dissociated and then cultured in the presence of RFA (10^−6 M and 10^−8 M) for 5 days, and then the number of living cells and their size and morphology are recorded.

[7] = LPS 0.01 μg/ml, 24 hours of activation, compound at 5×10^-6 M

Structure (SMILES) | decrease in nitrite production compared to the control values [3] [%] | inhibition at 5 µM [4, 7] [%] | further results
Oc1ccc(/C=C/c2cc(O)cc(O)c2)cc1 [resveratrol] | 20 | 30 | IC50 [1]: 10 µM; IC50 [2]: 30 µM
COc1ccc(/C=C/c2cc(OC)c(CCCCCCCCCCCCO)c(OC)c2)cc1OC [DMRFA-12] | – | 40 | –
COc1ccc(/C=C/c2cc(OC)c(CCCCCCCCCCCCO)c(OC)c2)cc1 [MRFA-12] | – | 20 to 40 | –
COc1ccc(/C=C/c2cc(OC)c(CCCCCCCCCCO)c(OC)c2)cc1OC [DMRFA-10] | 20 | 40 | –
OCCCCCCCCCCCCc1c(O)cc(/C=C/c2ccc(O)cc2)cc1O [RFA-12] | – | 40 | decrease in nitrite levels ([3]; compound at 5×10^-6 M): 50%; differentiation of neural stem cells, result in words (neural stem cells [5]; 10^-5 M): does not induce differentiation due to toxicity; increase in the neuron population compared to the control fixed at 100% (neural stem cells [5]; 10^-6 M): 120%; increase in the neuron population compared to the control fixed at 100% (neural stem cells [5]; 10^-7 M): 90%; increase in the neuron population compared to the control fixed at 100% (neural stem cells [5]; 10^-8 M): 80%; differentiation of neural stem cells, result in words (neural stem cells [5]; 10^-9 M): only weak activity; effect on neural stem cell proliferation (neural stem cells [6]): inhibits the proliferation of neural stem cells
COc1ccc(/C=C/c2cc(OC)c(CCCCCCCCCCO)c(OC)c2)cc1 [MRFA-10] | 20 | 20 to 40 | –
COc1ccc(/C=C/c2cc(OC)cc(OC)c2)cc1 [M-resveratrol, reference compound] | – | – | inhibition at 5 µM ([4]; 24 h): 20%
COc1ccc(/C=C/c2cc(OC)c(CCCCCCCCCCCCCCO)c(OC)c2)cc1 [MRFA-14, (E)-14-(4-(4-methoxystyryl)-2,6-dimethoxyphenyl)tetradecan-1-ol] | – | 20 to 40 | –
